# Laboratory results: ChEMBL document CHEMBL5303304, “EUbOPEN Chemogenomics Library - IncuCyte” (2023)
# Assays:
# Format in all cases: toxicity, cell-based
# HEK-293T = test: Incucyte cell viability with HEK293T; conditions: human, 10 µM, compound concentration 10 uM
# Fibroblast = test: Incucyte cell viability with human fibroblast; conditions: 10 µM, compound concentration 10 uM
# U2OS = test: Incucyte cell viability with U2OS; conditions: human, 10 µM, compound concentration 10 uM
# Also: unitless GR value; below 1 slowed growth and below 0 cell loss.
smiles,measurement,setting,value
N[C@H](C(=O)O)[C@@H]1CC(Cl)=NO1 [ACIVICIN],Growth Rate,"HEK-293T; 0 h, replicate number 1",0.17
same,Growth Rate,"HEK-293T; 6 h, replicate number 2",0.69
same,Growth Rate,"HEK-293T; 12 h, replicate number 1",0.69
same,Growth Rate,"HEK-293T; 12 h, replicate number 2",0.57
same,Growth Rate,"HEK-293T; 18 h, replicate number 1",0.51
same,Growth Rate,"HEK-293T; 18 h, replicate number 2",0.37
same,Growth Rate,"HEK-293T; 24 h, replicate number 1",0.43
same,Growth Rate,"HEK-293T; 24 h, replicate number 2",0.37
same,Growth Rate,"Fibroblast; 0 h, replicate number 1",-1
same,Growth Rate,"Fibroblast; 6 h, replicate number 1",-0.24
same,Growth Rate,"Fibroblast; 6 h, replicate number 2",-0.62
same,Growth Rate,"Fibroblast; 12 h, replicate number 1",0.08
same,Growth Rate,"Fibroblast; 12 h, replicate number 2",0.4
same,Growth Rate,"Fibroblast; 18 h, replicate number 1",0.11
same,Growth Rate,"Fibroblast; 18 h, replicate number 2",0.21
same,Growth Rate,"Fibroblast; 24 h, replicate number 1",0.22
same,Growth Rate,"Fibroblast; 24 h, replicate number 2",0.56
same,Growth Rate,"U2OS; 12 h, replicate number 1",0.81
same,Growth Rate,"U2OS; 18 h, replicate number 1",0.99
same,Growth Rate,"U2OS; 24 h, replicate number 1",0.51
COc1ccc(NC(=O)[C@@H]2C[C@H](C)CC[C@H]2C(C)C)cc1 [ACOLTREMON],Growth Rate,"HEK-293T; 0 h, replicate number 2",0.02
same,Growth Rate,"Fibroblast; 0 h, replicate number 1",0.31
same,Growth Rate,"Fibroblast; 6 h, replicate number 2",-0.34
same,Growth Rate,"Fibroblast; 12 h, replicate number 2",0.74
same,Growth Rate,"Fibroblast; 18 h, replicate number 1",0.98
same,Growth Rate,"Fibroblast; 18 h, replicate number 2",0.61
same,Growth Rate,"Fibroblast; 24 h, replicate number 2",0.67
same,Growth Rate,"U2OS; 0 h, replicate number 2",-0.89
same,Growth Rate,"U2OS; 6 h, replicate number 1",-0.13
same,Growth Rate,"U2OS; 12 h, replicate number 1",0.93
same,Growth Rate,"U2OS; 24 h, replicate number 1",0.94
C=C(F)C(=O)N1CCN(c2nc(OC[C@@H]3CCCN3C)nc3c2CCN(c2cccc4cccc(Cl)c24)C3)C[C@@H]1CC#N [ADAGRASIB],Growth Rate,"HEK-293T; 6 h, replicate number 1",-0.26
same,Growth Rate,"HEK-293T; 6 h, replicate number 2",-0.86
same,Growth Rate,"HEK-293T; 12 h, replicate number 1",-0.28
same,Growth Rate,"HEK-293T; 12 h, replicate number 2",-0.57
same,Growth Rate,"HEK-293T; 18 h, replicate number 1",-0.25
same,Growth Rate,"HEK-293T; 18 h, replicate number 2",-0.46
same,Growth Rate,"HEK-293T; 24 h, replicate number 1",-0.21
same,Growth Rate,"HEK-293T; 24 h, replicate number 2",-0.38
same,Growth Rate,"Fibroblast; 0 h, replicate number 1",-1
same,Growth Rate,"Fibroblast; 6 h, replicate number 1",-0.47
same,Growth Rate,"Fibroblast; 6 h, replicate number 2",-0.86
same,Growth Rate,"Fibroblast; 12 h, replicate number 1",-0.27
same,Growth Rate,"Fibroblast; 12 h, replicate number 2",-0.18
same,Growth Rate,"Fibroblast; 18 h, replicate number 1",-0.26
same,Growth Rate,"Fibroblast; 18 h, replicate number 2",-0.27
same,Growth Rate,"Fibroblast; 24 h, replicate number 1",-0.3
same,Growth Rate,"Fibroblast; 24 h, replicate number 2",-0.22
same,Growth Rate,"U2OS; 0 h, replicate number 1",-1
same,Growth Rate,"U2OS; 0 h, replicate number 2",-0.94
same,Growth Rate,"U2OS; 6 h, replicate number 1",-0.94
same,Growth Rate,"U2OS; 6 h, replicate number 2",0.32
same,Growth Rate,"U2OS; 12 h, replicate number 1",-0.94
same,Growth Rate,"U2OS; 12 h, replicate number 2",-0.11
same,Growth Rate,"U2OS; 18 h, replicate number 1",-0.89
same,Growth Rate,"U2OS; 18 h, replicate number 2",-0.27
same,Growth Rate,"U2OS; 24 h, replicate number 1",-0.76
same,Growth Rate,"U2OS; 24 h, replicate number 2",-0.3
CC/C(=C(\c1ccc(O)cc1)c1ccc(OCCN(C)C)cc1)c1ccccc1 [AFIMOXIFENE],Growth Rate,"HEK-293T; 6 h, replicate number 1",-0.92
same,Growth Rate,"HEK-293T; 6 h, replicate number 2",-0.67
same,Growth Rate,"HEK-293T; 12 h, replicate number 1",-0.87
same,Growth Rate,"HEK-293T; 12 h, replicate number 2",-0.46
same,Growth Rate,"HEK-293T; 18 h, replicate number 1",-0.68
same,Growth Rate,"HEK-293T; 18 h, replicate number 2",-0.33
same,Growth Rate,"HEK-293T; 24 h, replicate number 1",-0.63
same,Growth Rate,"HEK-293T; 24 h, replicate number 2",-0.26
same,Growth Rate,"Fibroblast; 0 h, replicate number 1",0.22
same,Growth Rate,"Fibroblast; 6 h, replicate number 1",-0.74
same,Growth Rate,"Fibroblast; 6 h, replicate number 2",0.4
same,Growth Rate,"Fibroblast; 12 h, replicate number 2",0.3
same,Growth Rate,"Fibroblast; 18 h, replicate number 2",0.13
same,Growth Rate,"Fibroblast; 24 h, replicate number 2",0.18
same,Growth Rate,"U2OS; 0 h, replicate number 2",-0.96
same,Growth Rate,"U2OS; 24 h, replicate number 1",0.9
CCc1cc2c(cc1N1CCC(N3CCOCC3)CC1)C(C)(C)c1[nH]c3cc(C#N)ccc3c1C2=O [ALECTINIB],Growth Rate,"HEK-293T; 6 h, replicate number 1",0.56
same,Growth Rate,"HEK-293T; 6 h, replicate number 2",0.59
same,Growth Rate,"HEK-293T; 12 h, replicate number 1",0.83
same,Growth Rate,"HEK-293T; 12 h, replicate number 2",0.86
same,Growth Rate,"HEK-293T; 18 h, replicate number 1",0.95
same,Growth Rate,"Fibroblast; 6 h, replicate number 2",0.58
same,Growth Rate,"Fibroblast; 24 h, replicate number 2",0.89
same,Growth Rate,"U2OS; 6 h, replicate number 1",0.77
same,Growth Rate,"U2OS; 6 h, replicate number 2",0.78
same,Growth Rate,"U2OS; 12 h, replicate number 2",0.78
same,Growth Rate,"U2OS; 18 h, replicate number 2",1
same,Growth Rate,"U2OS; 24 h, replicate number 1",0.91
same,Growth Rate,"U2OS; 24 h, replicate number 2",0.94
Cc1cc([N+](=O)[O-])c(NS(=O)(=O)c2cccc(C(=O)O)c2)cc1-c1cccnc1 [ALOFANIB],Growth Rate,"HEK-293T; 0 h, replicate number 1",-0.38
same,Growth Rate,"HEK-293T; 6 h, replicate number 2",0.57
same,Growth Rate,"HEK-293T; 12 h, replicate number 1",0.91
same,Growth Rate,"HEK-293T; 12 h, replicate number 2",0.68
same,Growth Rate,"HEK-293T; 18 h, replicate number 1",0.65
same,Growth Rate,"HEK-293T; 18 h, replicate number 2",0.78
same,Growth Rate,"HEK-293T; 24 h, replicate number 1",0.75
same,Growth Rate,"HEK-293T; 24 h, replicate number 2",0.79
same,Growth Rate,"Fibroblast; 0 h, replicate number 2",0.25
same,Growth Rate,"Fibroblast; 6 h, replicate number 1",0.27
same,Growth Rate,"Fibroblast; 6 h, replicate number 2",0.26
same,Growth Rate,"Fibroblast; 12 h, replicate number 1",0.56
same,Growth Rate,"Fibroblast; 12 h, replicate number 2",0.74
same,Growth Rate,"Fibroblast; 18 h, replicate number 1",0.5
same,Growth Rate,"Fibroblast; 18 h, replicate number 2",0.99
same,Growth Rate,"Fibroblast; 24 h, replicate number 1",0.8
same,Growth Rate,"Fibroblast; 24 h, replicate number 2",0.92
same,Growth Rate,"U2OS; 0 h, replicate number 1",-0.35
same,Growth Rate,"U2OS; 0 h, replicate number 2",0.06
same,Growth Rate,"U2OS; 6 h, replicate number 1",0.68
same,Growth Rate,"U2OS; 6 h, replicate number 2",0.28
same,Growth Rate,"U2OS; 12 h, replicate number 1",0.39
same,Growth Rate,"U2OS; 12 h, replicate number 2",0.55
same,Growth Rate,"U2OS; 18 h, replicate number 1",0.93
same,Growth Rate,"U2OS; 18 h, replicate number 2",0.64
same,Growth Rate,"U2OS; 24 h, replicate number 2",0.6
O=c1cc(-c2ccccc2)oc2c1ccc1ccccc12 [ALPHA-NAPHTHOFLAVONE],Growth Rate,"HEK-293T; 6 h, replicate number 1",0.31
same,Growth Rate,"HEK-293T; 6 h, replicate number 2",0.53
same,Growth Rate,"HEK-293T; 12 h, replicate number 2",0.81
same,Growth Rate,"HEK-293T; 18 h, replicate number 1",0.95
same,Growth Rate,"HEK-293T; 18 h, replicate number 2",0.8
same,Growth Rate,"HEK-293T; 24 h, replicate number 2",0.88
same,Growth Rate,"Fibroblast; 0 h, replicate number 1",0.97
same,Growth Rate,"Fibroblast; 24 h, replicate number 1",0.65
same,Growth Rate,"U2OS; 0 h, replicate number 2",-0.73
same,Growth Rate,"U2OS; 6 h, replicate number 1",-0.07
same,Growth Rate,"U2OS; 6 h, replicate number 2",0.41
same,Growth Rate,"U2OS; 12 h, replicate number 1",0.67
same,Growth Rate,"U2OS; 12 h, replicate number 2",0.63
same,Growth Rate,"U2OS; 18 h, replicate number 1",0.92
same,Growth Rate,"U2OS; 18 h, replicate number 2",0.66
CCCCC[C@H](O)/C=C/[C@H]1[C@H](O)CC(=O)[C@@H]1CCCCCCC(=O)O [ALPROSTADIL],Growth Rate,"HEK-293T; 0 h, replicate number 1",-0.3
same,Growth Rate,"HEK-293T; 0 h, replicate number 2",0.55
same,Growth Rate,"HEK-293T; 6 h, replicate number 1",0.47
same,Growth Rate,"HEK-293T; 12 h, replicate number 1",0.82
same,Growth Rate,"HEK-293T; 12 h, replicate number 2",0.97
same,Growth Rate,"HEK-293T; 18 h, replicate number 2",0.98
same,Growth Rate,"Fibroblast; 0 h, replicate number 1",-1
same,Growth Rate,"Fibroblast; 12 h, replicate number 2",0.37
same,Growth Rate,"Fibroblast; 18 h, replicate number 2",0.79
same,Growth Rate,"Fibroblast; 24 h, replicate number 2",0.9
same,Growth Rate,"U2OS; 0 h, replicate number 2",0.57
same,Growth Rate,"U2OS; 6 h, replicate number 1",0.87
same,Growth Rate,"U2OS; 12 h, replicate number 1",0.94
same,Growth Rate,"U2OS; 12 h, replicate number 2",0.76
same,Growth Rate,"U2OS; 18 h, replicate number 2",0.76
same,Growth Rate,"U2OS; 24 h, replicate number 1",0.93
same,Growth Rate,"U2OS; 24 h, replicate number 2",0.92
CC(=O)Nc1nc2c(Oc3cc(-c4ccc(C(F)(F)F)cc4)ncn3)cccc2s1 [AMG-517],Growth Rate,"HEK-293T; 0 h, replicate number 1",0.87
same,Growth Rate,"HEK-293T; 6 h, replicate number 1",0.63
same,Growth Rate,"HEK-293T; 6 h, replicate number 2",0.69
same,Growth Rate,"HEK-293T; 12 h, replicate number 1",0.82
same,Growth Rate,"HEK-293T; 18 h, replicate number 1",0.67
same,Growth Rate,"HEK-293T; 24 h, replicate number 1",0.89
same,Growth Rate,"HEK-293T; 24 h, replicate number 2",0.99
same,Growth Rate,"Fibroblast; 0 h, replicate number 1",-0.1
same,Growth Rate,"Fibroblast; 0 h, replicate number 2",-1
same,Growth Rate,"Fibroblast; 6 h, replicate number 1",-0.08
same,Growth Rate,"Fibroblast; 6 h, replicate number 2",-0.6
same,Growth Rate,"Fibroblast; 12 h, replicate number 1",-1
same,Growth Rate,"Fibroblast; 12 h, replicate number 2",0.8
same,Growth Rate,"U2OS; 0 h, replicate number 2",-0.37
same,Growth Rate,"U2OS; 6 h, replicate number 1",0.79
same,Growth Rate,"U2OS; 6 h, replicate number 2",0.81
same,Growth Rate,"U2OS; 12 h, replicate number 1",0.8
same,Growth Rate,"U2OS; 12 h, replicate number 2",0.88
same,Growth Rate,"U2OS; 18 h, replicate number 2",0.91
same,Growth Rate,"U2OS; 24 h, replicate number 1",0.86
same,Growth Rate,"U2OS; 24 h, replicate number 2",0.96
Cc1csc(-c2nnc(Nc3ccc(Oc4ncccc4-c4ccnc(N)n4)cc3)c3ccccc23)c1 [AMG-900],Growth Rate,"HEK-293T; 0 h, replicate number 1",-0.13
same,Growth Rate,"HEK-293T; 0 h, replicate number 2",-0.21
same,Growth Rate,"Fibroblast; 0 h, replicate number 2",-0.73
same,Growth Rate,"Fibroblast; 12 h, replicate number 2",0.98
same,Growth Rate,"Fibroblast; 24 h, replicate number 1",0.75
same,Growth Rate,"U2OS; 6 h, replicate number 1",0.79
same,Growth Rate,"U2OS; 6 h, replicate number 2",0.9
same,Growth Rate,"U2OS; 12 h, replicate number 1",0.57
same,Growth Rate,"U2OS; 12 h, replicate number 2",0.16
same,Growth Rate,"U2OS; 18 h, replicate number 1",0.27
same,Growth Rate,"U2OS; 18 h, replicate number 2",0.17
same,Growth Rate,"U2OS; 24 h, replicate number 1",0.33
same,Growth Rate,"U2OS; 24 h, replicate number 2",0.41
